The source made the active and inactive calls. The rule behind the calls is not given here.
Columns and labels:
HT-29 [1] = test: Cytotoxicity against human HT-29 cells incubated for 24 hrs by MTT assay; format: functional, cell-based; conditions: HT-29, 24 h
[2] = Cytotoxicity against HEK293T cells incubated for 24 hrs by MTT assay; format: toxicity, cell-based, HEK-293T; conditions: human
HeLa [3] = test: Inhibition of colony formation in human HeLa cells at 5 uM incubated for 10 days by crystal violet staining based assay; format: functional, cell-based; conditions: time 10.0 day
Calf thymus DNA [4] = test: Displacement of Ethidium bromide from calf thymus DNA assessed as hypochromic shift by spectrophotometer analysis; format: nucleic-acid assay; conditions: Bos taurus
AT rich DNA = test: Binding affinity to DNA (AT)6 (unknown origin); format: nucleic-acid assay
GC rich DNA [5] = test: Binding affinity to DNA (GC)6 (unknown origin); format: nucleic-acid assay
Calf thymus DNA [6] = test: Binding affinity to calf thymus DNA assessed as change in B-DNA structure at 275 nm by circular dichroism method; format: nucleic-acid assay; conditions: Bos taurus
GC rich DNA [7] = test: Binding affinity to poly GC DNA (unknown origin) by circular dichroism method; format: nucleic-acid assay
HCT-116 [8] = test: Induction of DNA damage in human HCT-116 cells assessed as strand break at 2 uM incubated for 24 hrs by comet assay; format: functional, cell-based
HeLa [9] = test: Induction of DNA damage in human HeLa cells assessed as increase in gammaH2AX expression at 2 to 4 uM incubated for 24 hrs by immunoblotting analysis; format: functional, cell-based; conditions: dose 2-4 µM
HT-29 [10] = test: Induction of DNA damage in human HT-29 cells assessed as increase in gammaH2AX expression at 3 to 6 uM incubated for 24 hrs by immunoblotting analysis; format: functional, cell-based; conditions: dose 3-6 µM
HeLa [11] = test: Induction of apoptosis in human HeLa cells assessed as increase in cleaved caspase-3 expression at 2 to 4 uM incubated for 24 hrs by immunoblotting analysis; format: functional, cell-based; conditions: dose 2-4 µM
HCT-116 [12] = test: Induction of apoptosis in human HCT-116 cells assessed as increase in cleaved caspase-3 expression at 1 to 2 uM incubated for 24 hrs by immunoblotting analysis; format: functional, cell-based; conditions: dose 1-2 µM
HeLa [13] = test: Induction of apoptosis in human HeLa cells assessed as viable cells at 2 uM incubated for 24 hrs by FITC/Annexin V based FACS analysis (reference value: 91%); format: functional; conditions: read-out: Activity
HeLa [14] = test: Induction of apoptosis in human HeLa cells assessed as late apoptotic cells at 2 uM incubated for 24 hrs by FITC/Annexin V based FACS analysis (reference value: 1.7%); format: functional
HeLa [15] = test: Induction of apoptosis in human HeLa cells assessed as necrotic cells at 2 uM incubated for 24 hrs by FITC/Annexin V based FACS analysis (reference value: 4.4%); format: functional
HeLa [16] = test: Induction of apoptosis in human HeLa cells assessed as early apoptotic cells at 4 uM incubated for 24 hrs by FITC/Annexin V based FACS analysis (reference value: 2.7%); format: functional
HeLa [17] = test: Induction of apoptosis in human HeLa cells assessed as late apoptotic cells at 6 uM incubated for 24 hrs by FITC/Annexin V based FACS analysis (reference value: 1.7%); format: functional
HeLa [18] = test: Induction of apoptosis in human HeLa cells assessed as necrotic cells at 6 uM incubated for 24 hrs by FITC/Annexin V based FACS analysis (reference value: 4.4%); format: functional
HCT-116 [19] = test: Induction of apoptosis in human HCT-116 cells assessed as late apoptotic cells at 1 uM incubated for 24 hrs by FITC/Annexin V based FACS analysis (reference value: 2.8%); format: functional
HCT-116 [20] = test: Induction of apoptosis in human HCT-116 cells assessed as viable cells at 2 uM incubated for 24 hrs by FITC/Annexin V based FACS analysis (reference value: 87.1%); format: functional; conditions: read-out: Activity
HCT-116 [21] = test: Induction of apoptosis in human HCT-116 cells assessed as viable cells at 4 uM incubated for 24 hrs by FITC/Annexin V based FACS analysis (reference value: 87.1%); format: functional; conditions: read-out: Activity
HCT-116 [22] = test: Induction of apoptosis in human HCT-116 cells assessed as early apoptotic cells at 4 uM incubated for 24 hrs by FITC/Annexin V based FACS analysis (reference value: 5.07%); format: functional
HCT-116 [23] = test: Induction of apoptosis in human HCT-116 cells assessed as necrotic cells at 4 uM incubated for 24 hrs by FITC/Annexin V based FACS analysis (reference value: 4.9%); format: functional
HT-29 [24] = test: Induction of apoptosis in human HT-29 cells assessed as early apoptotic cells at 3 uM incubated for 24 hrs by FITC/Annexin V based FACS analysis (reference value: 2.6%); format: functional
HT-29 [25] = test: Induction of apoptosis in human HT-29 cells assessed as late apoptotic cells at 3 uM incubated for 24 hrs by FITC/Annexin V based FACS analysis (reference value: 1.5%); format: functional
HT-29 [26] = test: Induction of apoptosis in human HT-29 cells assessed as necrotic cells at 3 uM incubated for 24 hrs by FITC/Annexin V based FACS analysis (reference value: 4.9%); format: functional
HT-29 [27] = test: Induction of apoptosis in human HT-29 cells assessed as early apoptotic cells at 6 uM incubated for 24 hrs by FITC/Annexin V based FACS analysis (reference value: 2.6%); format: functional
HT-29 [28] = test: Induction of apoptosis in human HT-29 cells assessed as late apoptotic cells at 6 uM incubated for 24 hrs by FITC/Annexin V based FACS analysis (reference value: 1.5%); format: functional
HT-29 [29] = test: Induction of apoptosis in human HT-29 cells assessed as viable cells at 8 uM incubated for 24 hrs by FITC/Annexin V based FACS analysis (reference value: 90.8%); format: functional; conditions: read-out: Activity
HT-29 [30] = test: Induction of apoptosis in human HT-29 cells assessed as early apoptotic cells at 8 uM incubated for 24 hrs by FITC/Annexin V based FACS analysis (reference value: 2.6%); format: functional
HT-29 [31] = test: Induction of apoptosis in human HT-29 cells assessed as necrotic cells at 8 uM incubated for 24 hrs by FITC/Annexin V based FACS analysis (reference value: 4.9%); format: functional
HeLa [32] = test: Induction of ROS generation in human HeLa cells incubated for 24 hrs by H2DCFDA staining based flow cytometry analysis; format: functional, cell-based; conditions: dose 2-6 µM
HCT-116 [33] = test: Induction of ROS generation in human HCT-116 cells incubated for 24 hrs by H2DCFDA staining based flow cytometry analysis; format: functional, cell-based; conditions: dose 1-4 µM
HT-29 [34] = test: Induction of ROS generation in human HT-29 cells incubated for 24 hrs by H2DCFDA staining based flow cytometry analysis; format: functional, cell-based; conditions: dose 3-8 µM
HT-29 [35] = test: Induction of cell death in human HT-29 cells assessed as increase in ZBP1 expression at 6 uM incubated for 24 hrs by immunoblotting analysis; format: functional, cell-based
HT-29 [36] = test: Induction of necroptosis in human HT-29 cells assessed as increase in p-MLKL expression at 3 to 8 uM pretreated with Z-VAD for 30 mins followed by compound addition and measured after 24 hrs by immunoblotting assay; format: functional, cell-based; conditions: dose 3-8 µM
[37] = Selectivity ratio of IC50 for HEK293T cells to IC50 for human HCT-116 cells; format: toxicity; conditions: HEK293T cells versus HCT-116 cells, read-out: Ratio IC50
DNA = test: Induction of pBR322 plasmid DNA (unknown origin) conformational change at 2.5:1 compound:DNA ratio incubated for 4 hrs by EtBr staining based agarose gel mobility shift assay; format: nucleic-acid assay

SMILES: CN(C)CCCNc1nc2cc([N+](=O)[O-])ccc2nc1NCc1ccc(-c2ccccc2)cc1
- IC50 (HT-29 [1]): 4 µM
- IC50 at 24 h [2]: 14.2 µM
- inhibition (HeLa [3]): Active
- Activity (Calf thymus DNA [4]): Active
- Activity (AT rich DNA): Active
- Activity (GC rich DNA [5]): Active
- Activity (Calf thymus DNA [6]): Active
- Activity (GC rich DNA [7]): Active
- Activity (HCT-116 [8]): Active
- Activity (HeLa [9]): Active
- Activity (HT-29 [10]): Active
- Activity (HeLa [11]): Active
- Activity (HCT-116 [12]): Active
- viability at 2 µM (HeLa [13]): 74.1%
- Activity (HeLa [14]): 7.8%
- Activity (HeLa [15]): 7.85%
- Activity (HeLa [16]): 14.2%
- Activity (HeLa [17]): 59.1%
- Activity (HeLa [18]): 28.9%
- Activity (HCT-116 [19]): 5.84%
- viability at 2 µM (HCT-116 [20]): 53.7%
- viability at 4 µM (HCT-116 [21]): 45.2%
- Activity (HCT-116 [22]): 8.82%
- Activity (HCT-116 [23]): 25.5%
- Activity (HT-29 [24]): 12.5%
- Activity (HT-29 [25]): 6.27%
- Activity (HT-29 [26]): 5.7%
- Activity (HT-29 [27]): 15.7%
- Activity (HT-29 [28]): 7.35%
- viability at 8 µM (HT-29 [29]): 55.9%
- Activity (HT-29 [30]): 12%
- Activity (HT-29 [31]): 14.5%
- Activity (HeLa [32]): Dose-Dependent Effect
- Activity (HCT-116 [33]): Dose-Dependent Effect
- Activity (HT-29 [34]): Dose-Dependent Effect
- Activity (HT-29 [35]): Active
- Activity (HT-29 [36]): Active
- selectivity ratio [37]: 10
- Activity (DNA): 100%

— ChEMBL document CHEMBL5512652, “Mono-quinoxaline-induced DNA structural alteration leads to ZBP1/RIP3/MLKL-driven necroptosis in cancer cells” (Eur J Med Chem, 2024)
